Test results reported in US11814375B2, “Heterocyclic compounds” (Hoffmann-La Roche Inc., priority 2019, dated 2023).

What follows are compounds tested against T1, MAGL (Homo sapiens, UniProt Q99685) (assay: 2-AG assay: MAGL inhibitory activity by hydrolysis of 2-arachidonoylglycerol to arachidonic acid, followed by mass spectrometry). Details: 8 μM 2-arachidonoylglycerol, 15 min preincubation and 30 min reaction at RT, arachidonic acid/d8-arachidonic acid ratio by MS.
T1 sequence (Q99685 1-303): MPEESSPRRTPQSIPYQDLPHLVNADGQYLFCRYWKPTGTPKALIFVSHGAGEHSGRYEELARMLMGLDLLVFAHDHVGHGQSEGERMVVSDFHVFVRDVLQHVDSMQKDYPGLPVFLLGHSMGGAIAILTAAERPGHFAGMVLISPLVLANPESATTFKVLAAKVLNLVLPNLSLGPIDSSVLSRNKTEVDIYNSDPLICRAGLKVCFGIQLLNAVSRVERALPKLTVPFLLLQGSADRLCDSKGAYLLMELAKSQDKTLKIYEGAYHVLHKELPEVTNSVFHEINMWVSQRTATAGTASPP
Format: biochemical
Experimental: Compounds of formula (I) were profiled for MAGL inhibitory activity by determining the enzymatic activity by following the hydrolysis of the natural substrate 2-arachidonoylglycerol (2-AG) resulting in arachidonic acid, which can be followed by mass spectrometry. This assay is hereinafter abbreviated “2-AG assay”.
The 2-AG assay was carried out in 384 well assay plates (PP, Greiner Cat #784201) in a total volume of 20 μL. Compound dilutions were made in 100% DMSO (VWR Chemicals 23500.297) in a polypropylene plate in 3-fold dilution steps to give a final concentration range in the assay from 12.5 μM to […]. 0.25 μL compound dilutions (100% DMSO) were added to 9 μL MAGL in assay buffer (50 mM TRIS (GIBCO, 15567-027), 1 mM EDTA (Fluka, 03690-100 mL), 0.01% (v/v) Tween. After shaking, the plate was incubated for 15 min at RT. To start the reaction, 10 μL 2-arachidonoylglycerol in assay buffer was added. The final concentrations in the assay was […] and 8 μM 2-arachidonoylglyerol. After shaking and 30 min incubation at RT, the reaction was quenched by the addition of 40 μL of ACN containing 4 μM of d8-arachidonic acid. The amount of arachidonic acid was traced by an online SPE system (Agilent Rapidfire) coupled to a triple quadrupole mass spectrometer (Agilent 6460). A C18 SPE cartridge (G9205A) was used in an ACN/water liquid setup. The mass spectrometer was operated in negative electrospray mode following the mass transitions 303.1→259.1 for arachidonic acid and 311.1→267.0 for d8-arachidonic acid. The activity of the compounds was calculated based on the ratio of intensities [arachidonic acid/d8-arachidonic acid].

Structure (SMILES)	IC50 [nM]
O=C1CO[C@H]2CCN(C(=O)N3CC(c4ccc(Oc5ccccc5)cc4)C3)C[C@H]2N1 [Example 1, (4aR,8aS)-6-(3-(4-Phenoxyphenyl)azetidine-1-carbonyl)hexahydro-2H-pyrido[4,3-b][1,4]oxazin-3(4H)-one]	0.2
O=C1CO[C@H]2CCN(C(=O)N3CC(c4ccc(Oc5ccccc5Cl)cc4)C3)C[C@H]2N1 [Example 2, (4aR,8aS)-6-[3-[4-(2-Chlorophenoxy)phenyl]azetidine-1-carbonyl]-4,4a,5,7,8,8a-hexahydropyrido[4,3-b][1,4]oxazin-3-one]	0.02
O=C1CO[C@H]2CCN(C(=O)N3CC(c4ccc(Oc5ncccn5)cc4)C3)C[C@H]2N1 [Example 3, (4aR,8aS)-6-[3-(4-Pyrimidin-2-yloxyphenyl)azetidine-1-carbonyl]-4,4a,5,7,8,8a-hexahydropyrido[4,3-b][1,4]oxazin-3-one]	75.4
Cc1ncccc1Oc1ccc(C2CN(C(=O)N3CC[C@@H]4OCC(=O)N[C@@H]4C3)C2)cc1 [Example 4, (4aR,8aS)-6-[3-[4-[(2-Methyl-3-pyridyl)oxy]phenyl]azetidine-1-carbonyl]-4,4a,5,7,8,8a-hexahydropyrido[4,3-b][1,4]oxazin-3-one]	2.5
Cc1ccnc(Oc2ccc(C3CN(C(=O)N4CC[C@@H]5OCC(=O)N[C@@H]5C4)C3)cc2)n1 [Example 5, (+)-(4aR,8aS)-6-[3-[4-(4-Methylpyrimidin-2-yl)oxyphenyl]azetidine-1-carbonyl]-4,4a,5,7,8,8a-hexahydropyrido[4,3-b][1,4]oxazin-3-one]	23.8
O=C1CO[C@H]2CCN(C(=O)N3CC(c4ccc(Oc5cccnn5)cc4)C3)C[C@H]2N1 [Example 6, (+)-(4aR,8aS)-6-[3-(4-Pyridazin-3-yloxyphenyl)azetidine-1-carbonyl]-4,4a,5,7,8,8a-hexahydropyrido[4,3-b][1,4]oxazin-3-one]	133
Cc1ccncc1Oc1ccc(C2CN(C(=O)N3CC[C@@H]4OCC(=O)N[C@@H]4C3)C2)cc1 [Example 7, (+)-(4aR,8aS)-6-[3-[4-[(4-Methyl-3-pyridyl)oxy]phenyl]azetidine-1-carbonyl]-4,4a,5,7,8,8a-hexahydropyrido[4,3-b][1,4]oxazin-3-one]	0.5
O=C1CO[C@H]2CCN(C(=O)N3CC(c4ccc(Oc5cncc(F)c5)cc4)C3)C[C@H]2N1 [Example 8, (+)-(4aR,8aS)-6-[3-[4-[(5-Fluoro-3-pyridyl)oxy]phenyl]azetidine-1-carbonyl]-4,4a,5,7,8,8a-hexahydropyrido[4,3-b][1,4]oxazin-3-one]	4.3
O=C1CO[C@H]2CCN(C(=O)N3CC(c4ccc(Oc5cncc(Cl)c5)cc4)C3)C[C@H]2N1 [Example 9, (+)-(4aR,8aS)-6-[3-[4-[(5-Chloro-3-pyridyl)oxy]phenyl]azetidine-1-carbonyl]-4,4a,5,7,8,8a-hexahydropyrido[4,3-b][1,4]oxazin-3-one]	0.9
O=C1CO[C@H]2CCN(C(=O)N3CC(c4ccc(Oc5cccnc5)cc4)C3)C[C@H]2N1 [Example 10, (+)-(4aR,8aS)-6-[3-[4-(3-Pyridyloxy)phenyl]azetidine-1-carbonyl]-4,4a,5,7,8,8a-hexahydropyrido[4,3-b][1,4]oxazin-3-one]	2.3
Cc1ccnnc1Oc1ccc(C2CN(C(=O)N3CC[C@@H]4OCC(=O)N[C@@H]4C3)C2)cc1 [Example 11, (+)-(4aR,8aS)-6-[3-[4-(4-Methylpyridazin-3-yl)oxyphenyl]azetidine-1-carbonyl]-4,4a,5,7,8,8a-hexahydropyrido[4,3-b][1,4]oxazin-3-one]	42.9
O=C1CO[C@H]2CCN(C(=O)N3CC(c4ccc(Oc5ccnnc5Cl)cc4)C3)C[C@H]2N1 [Example 12, (+)-(4aR,8aS)-6-[3-[4-(3-Chloropyridazin-4-yl)oxyphenyl]azetidine-1-carbonyl]-4,4a,5,7,8,8a-hexahydropyrido[4,3-b][1,4]oxazin-3-one]	23.5
COc1ccnc(Oc2ccc(C3CN(C(=O)N4CC[C@@H]5OCC(=O)N[C@@H]5C4)C3)cc2)n1 [Example 13, (+)-(4aR,8aS)-6-[3-[4-(4-Methoxypyrimidin-2-yl)oxyphenyl]azetidine-1-carbonyl]-4,4a,5,7,8,8a-hexahydropyrido[4,3-b][1,4]oxazin-3-one]	12.7
O=C1CO[C@H]2CCN(C(=O)N3CC(c4ccc(Oc5nccc(C(F)(F)F)n5)cc4)C3)C[C@H]2N1 [Example 14, (+)-(4aR,8aS)-6-[3-[4-[4-(Trifluoromethyl)pyrimidin-2-yl]oxyphenyl]azetidine-1-carbonyl]-4,4a,5,7,8,8a-hexahydropyrido[4,3-b][1,4]oxazin-3-one]	13.4
O=C1CO[C@H]2CCN(C(=O)N3CC(c4ccc(Oc5cccc(F)c5)cc4)C3)C[C@H]2N1 [Example 15, (+)-(4aR,8aS)-6-[3-[4-(3-Fluorophenoxy)phenyl]azetidine-1-carbonyl]-4,4a,5,7,8,8a-hexahydropyrido[4,3-b][1,4]oxazin-3-one]	0.11
O=C1CO[C@H]2CCN(C(=O)N3CC(c4ccc(Oc5ccc(F)cc5)cc4)C3)C[C@H]2N1 [Example 16, (+)-(4aR,8aS)-6-[3-[4-(4-Fluorophenoxy)phenyl]azetidine-1-carbonyl]-4,4a,5,7,8,8a-hexahydropyrido[4,3-b][1,4]oxazin-3-one]	0.05
O=C1CO[C@H]2CCN(C(=O)N3CC(c4ccc(Oc5ccc(F)cc5F)cc4)C3)C[C@H]2N1 [Example 17, (+)-(4aR,8aS)-6-[3-[4-(2,4-Difluorophenoxy)phenyl]azetidine-1-carbonyl]-4,4a,5,7,8,8a-hexahydropyrido[4,3-b][1,4]oxazin-3-one]	0.1

More lines, now with the values ahead:

IC50 [nM]	Structure (SMILES)
0.05	O=C1CO[C@H]2CCN(C(=O)N3CC(c4ccc(Oc5ccccc5F)cc4)C3)C[C@H]2N1 [Example 18, (+)-(4aR,8aS)-6-[3-[4-(2-fluorophenoxy)phenyl]azetidine-1-carbonyl]-4,4a,5,7,8,8a-hexahydropyrido[4,3-b][1,4]oxazin-3-one]
0.01	O=C1CO[C@H]2CCN(C(=O)N3CC(c4ccc(Oc5ccc(Cl)cc5)cc4)C3)C[C@H]2N1 [Example 19, (+)-(4aR,8aS)-6-[3-[4-(4-Chlorophenoxy)phenyl]azetidine-1-carbonyl]-4,4a,5,7,8,8a-hexahydropyrido[4,3-b][1,4]oxazin-3-one]
0.06	O=C1CO[C@H]2CCN(C(=O)N3CC(c4ccc(Oc5cccc(Cl)c5)cc4)C3)C[C@H]2N1 [Example 20, (+)-(4aR,8aS)-6-[3-[4-(3-Chlorophenoxy)phenyl]azetidine-1-carbonyl]-4,4a,5,7,8,8a-hexahydropyrido[4,3-b][1,4]oxazin-3-one]
0.03	Cc1ccccc1Oc1ccc(C2CN(C(=O)N3CC[C@@H]4OCC(=O)N[C@@H]4C3)C2)cc1 [Example 21, (+)-(4aR,8aS)-6-[3-[4-(2-Methylphenoxy)phenyl]azetidine-1-carbonyl]-4,4a,5,7,8,8a-hexahydropyrido[4,3-b][1,4]oxazin-3-one]
0.06	O=C1CO[C@H]2CCN(C(=O)N3CC(c4ccc(Oc5cccc(C(F)(F)F)c5)cc4)C3)C[C@H]2N1 [Example 22, (+)-(4aR,8aS)-6-[3-[4-[3-(Trifluoromethyl)phenoxy]phenyl]azetidine-1-carbonyl]-4,4a,5,7,8,8a-hexahydropyrido[4,3-b][1,4]oxazin-3-one]
0.2	N#Cc1ccccc1Oc1ccc(C2CN(C(=O)N3CC[C@@H]4OCC(=O)N[C@@H]4C3)C2)cc1 [Example 23, (+)-2-[4-[1-[(4aR,8aS)-3-Oxo-4,4a,5,7,8,8a-hexahydropyrido[4,3-b][1,4]oxazine-6-carbonyl]azetidin-3-yl]phenoxy]benzonitrile]
0.04	O=C1CO[C@H]2CCN(C(=O)N3CC(c4ccc(Oc5ccnc(Cl)n5)cc4)C3)C[C@H]2N1 [Example 24, (+)-(4aR,8aS)-6-[3-[4-(2-Chloropyrimidin-4-yl)oxyphenyl]azetidine-1-carbonyl]-4,4a,5,7,8,8a-hexahydropyrido[4,3-b][1,4]oxazin-3-one]
4.2	O=C1CO[C@H]2CCN(C(=O)N3CC(c4ccc(Oc5nccc(C6CC6)n5)cc4)C3)C[C@H]2N1 [Example 25, (+)-(4aR,8aS)-6-[3-[4-(4-Cyclopropylpyrimidin-2-yl)oxyphenyl]azetidine-1-carbonyl]-4,4a,5,7,8,8a-hexahydropyrido[4,3-b][1,4]oxazin-3-one]
